Test results: patent US20200188441A1, “METHODS AND COMPOSITIONS FOR REDUCING CORNEAL ENDOTHELIAL CELL LOSS” (The Schepens Eye Research Institute, Inc., priority 2017, published 2020)
No end group written: not given here.

What was measured:
[1] = test system: human corneal endothelial cells; assay: Corneal endothelial wound healing in vitro; type: cell-based; settings: VIP 10^−9, 10^−7 and 10^−6 M; 12 and 24 hours after incubation; vs control
Description: FIG. 9 is a graph showing that VIP treatment of human corneal endothelial cells accelerates corneal endothelial wound healing in vitro in a dose-dependent manner Percentage of healed endothelial area compared to baseline in VIP-treated groups and in control. […] Error bars indicate mean±SEM. Each group consists of n=9, and data from one out of two independent experiments is shown.

[2] = test system: corneal endothelial cells; assay: IFNγ- and TNFα-mediated corneal endothelial cell apoptosis in corneal cups ex vivo (TUNEL); type: cell-based, C57BL/6; settings: VIP 10^−6 M; 18 hours of incubation
Protocol: FIG. 10A is a set of micrographs and FIG. 10B is a graph showing that VIP suppresses IFNγ- and TNFα-mediated corneal endothelial cell apoptosis. FIG. 10A: Representative confocal micrographs showing nave C57BL/6 corneal cups incubated with either IFNγ or TNFα with or without VIP (10^−12, 10^−9, 10^−6 M). After 18 hours of incubation, corneas were stained for zonula occluden-1 (ZO-1, green) and terminal deoxynucleotidyl transferase-mediated dUTP nick-end labeling assay (TUNEL, red) to visualize endothelial cell-to-cell junctions and apoptotic cells, respectively. The scale bars are equal to 100 μm (magnification ×40). FIG. 10B: Bar diagram showing the percentages of apoptotic (TUNEL-positive) corneal endothelial cells incubated ex vivo with either IFNγ or TNFα with different doses of VIP. […] Data are presented as mean±SEM. Each group consists of n=5 corneas and data from one out of two independent experiments is shown.

corneal graft [3] = assay: Murine model of syngeneic corneal transplantation with endothelial injury; type: in vivo
Description: FIG. 11A: Representative slit-lamp images showing corneas at week 2-6 post-transplantation (magnification ×25). […] FIG. 11C: Representative confocal micrographs of central area of transplanted corneas isolated from VIP-treated mice and the control groups at week 2, 4 and 6 after transplantation. To visualize corneal endothelial cell-to-cell junctions, corneas were stained with zonula occluden-1 (ZO-1, green). The scale bars are equal to 100 μm (magnification ×40). FIG. 11D: Bar diagram showing central endothelial cell density in VIP-treated corneas and controls at 2, 4 and 6 weeks post-transplantation. Data are presented as mean±SEM. Each group consists of n=6 corneas, and data from one out of two independent experiments is shown.

corneal graft [4] = assay: High-risk allogeneic corneal transplantation; type: in vivo, mice
Description: FIGS. 12A-D are graphs and images showing the effect of VIP treatment on high-risk corneal transplant survival. Animals underwent high-risk allogeneic corneal transplantation and received treatment with VIP at 1, 3, 5, 7 and 9 days after transplantation. […] Each group consists of n=14. FIG. 12C: Representative confocal micrographs of central area of transplanted corneas in VIP-treated mice and in controls at 1, 2 and 8 weeks post-transplantation. Corneal endothelial cell-to-cell junction were stained and visualized with zonula occluden-1 (ZO-1, green). The scale bars are equal to 100 μm (magnification ×40). […] Horizontal line represents the CEnC density of nave age-matched C57BL/6 corneas. Each group consists of n=5 corneas. All data are presented as mean±SEM, and data from one out of two independent experiments is shown.

Substance: VIP: vasoactive intestinal polypeptide, a neuropeptide; exemplary human sequence SEQ ID NO: 5 (HSDAVFTDNYTRLRKQMAVKKYLNSILN; ends and bridges not checked; UniProt P01282 125-152, looked up)
- wound healing (percentage of healed endothelial area compared to baseline) [1]: significantly enhanced wound healing
- IFNγ-mediated corneal endothelial cell apoptosis (TUNEL-positive cells) [2]: significantly suppresses
- TNFα-mediated corneal endothelial cell apoptosis (TUNEL-positive cells) [2]: significantly suppresses
- corneal endothelial wound healing (corneal graft [3]; syngeneic transplantation with endothelial injury): enhances corneal endothelial wound healing
- graft opacity scores (corneal graft [3]; week 2 to 6 post-transplantation, vs control): significantly decreased
- graft opacity scores (corneal graft [4]; 4 to 8 weeks post-transplantation, VIP at 1, 3, 5, 7 and 9 days after transplantation): significantly decreased
- central CEnC density (corneal graft [4]; 8 weeks post-transplantation, vs control): significantly higher
- hazard ratio (graft survival, VIP-treated vs controls) (corneal graft [4]; 8 weeks, 95% CI 0.04-0.26, Log rank test): 0.10
- graft survival (corneal graft [4]; weekly examination for 8 weeks, controls 0%): 85%
